In patent publication US8114442B2, “Transdermal pharmaceutical delivery compositions” (Queen Mary & Westfield College, priority 2008, dated 2012):

How the values were obtained:
[1] = healthy 70 kg-adult; cited from earlier work
[2] = Pilot studies of local anaesthesia by pin-prick and thermal sensitivity testing; assay type: in vivo, human; conditions: applied directly to the skin without NO-generating gel; within 20 minutes
Text: The anaesthetic used in these initial studies was xylocalne as it was readily available in a pharmaceutical form for mixing.

Row | SMILES | generally accepted safe dosage for topical anaesthesia [1] | level of anaesthesia [2]
1 | COC(=O)[C@H]1[C@@H](OC(=O)c2ccccc2)C[C@@H]2CC[C@H]1N2C [cocaine] | 200 mg | 
2 | CCN(CC)CC(=O)Nc1c(C)cccc1C [lidocaine] | 750 mg | 
3 | CCCCNc1ccc(C(=O)OCCN(C)C)cc1 [tetracaine] | 50 mg | 
4 | CCN(CC)CC(=O)Nc1c(C)cccc1C [xylocalne] |  | failed to produce any discernible level of anaesthesia
